The record followed here is PMC8457735, “Synthesis, Kinetics, Binding Conformations and Structure-activity Relationship of Potent Tyrosinase Inhibitors: Aralkylated 2-aminothiazole-ethyltriazole Hybrids” (Iranian Journal of Pharmaceutical Research : IJPR, 2021).

In one data set the target is mushroom tyrosinase (Agaricus bisporus, UniProt C7FF04). In words: Kinetic analysis of tyrosinase inhibition (Lineweaver-Burk and secondary plots). Format: biochemical. The protocol:
A series of experiments were performed to determine the inhibition kinetics of 7g, following the already reported methods ([54]). The concentrations for 7g were 0.00, 0.0018, 0.0036 and 0.0072 µM. Substrate L-DOPA concentrations were between 0.0625 to 2 mM in all kinetic studies. Pre-incubation and measurement time was the same as discussed in the mushroom tyrosinase inhibition assay protocol. Maximal initial velocity was determined from the initial linear portion of absorbance up to five minutes after the addition of enzyme at the 30s interval. The inhibition type of the enzyme was assayed by Lineweaver-Burk plots of the inverse of velocities (1/V) versus the inverse of substrate concentration 1/[L-DOPA] mM^-1.

Data set [1] can be described thus: Free radical scavenging assay (DPPH). Conditions: compound concentration 100 µg/mL. The protocol: Radical scavenging activity was determined by modifying the already reported method by 2, 2-diphenyl-1 picrylhydrazyl (DPPH) assay ([55]). The assay solution consisted of 100 µL of DPPH (150 µM), 20 µL of increasing concentration of test compounds, and the volume was adjusted to 200 µL in each well with CH3OH. After that, the assay reaction was then incubated for 30 minutes at room temperature. Ascorbic acid (Vitamin C) was used as a reference inhibitor. The assay measurements were carried out using a microplate reader (OPTI Max, Tunable) at 517 nm. The reaction rates were compared, and the percent inhibition caused by tested inhibitors was calculated. All experiments were repeated thrice.
For orientation: Loss of DPPH colour is used to gauge radical scavenging.

“Also recorded” adds a separate entry of the source.

Chain of mushroom tyrosinase (C7FF04 1-392): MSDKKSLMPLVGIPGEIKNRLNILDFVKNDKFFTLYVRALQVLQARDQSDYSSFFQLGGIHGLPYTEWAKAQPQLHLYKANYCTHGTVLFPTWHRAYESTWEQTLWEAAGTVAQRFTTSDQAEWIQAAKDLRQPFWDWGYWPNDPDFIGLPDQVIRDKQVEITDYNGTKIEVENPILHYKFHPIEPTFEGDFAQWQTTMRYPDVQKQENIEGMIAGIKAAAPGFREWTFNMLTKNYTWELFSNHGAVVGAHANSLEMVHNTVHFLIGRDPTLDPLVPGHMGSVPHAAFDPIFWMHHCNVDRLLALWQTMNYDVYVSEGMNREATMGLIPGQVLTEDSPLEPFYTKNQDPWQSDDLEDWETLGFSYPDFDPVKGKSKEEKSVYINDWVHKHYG

On to `CCn1c(Cc2csc(N)n2)nnc1SCc1ccc(Cl)cc1Cl` [Compound 7g, 4-({5-[(2,4-Dichlorobenzyl)sulfanyl]-4-ethyl-4H-1,2,4-triazol-3-yl}methyl)-1,3-thiazol-2-amine], for which the Vmax at mushroom tyrosinase (L-DOPA activity in presence of 0.0018 µM 7g) was 6.676 × 10^-5 ΔA/s; at mushroom tyrosinase (L-DOPA activity in presence of 0.0036 µM 7g), 4.712 × 10^-5 ΔA/s; at mushroom tyrosinase (L-DOPA activity in presence of 0.0072 µM 7g) it was 4.223 × 10^-5 ΔA/s. At mushroom tyrosinase (Lineweaver-Burk plots, substrate L-DOPA 0.0625-2 mM), the “Inhibition Type” value is reported as “non-competitively; also recorded: Non-Competitive”. Further, the radical scavenging activity in data set [1] was found to be 24%.

In turn, `CCn1c(Cc2csc(N)n2)nnc1SCc1ccc(Cl)c(Cl)c1` [Compound 7h, 4-({5-[(3,4-Dichlorobenzyl)sulfanyl]-4-ethyl-4H-1,2,4-triazol-3-yl}methyl)-1,3-thiazol-2-amine] showed a radical scavenging activity in data set [1] of 21%.

A word on the melting point: it is the temperature of the solid-liquid transition. Molecule `CCn1c(Cc2csc(N)n2)nnc1SCc1ccccc1Br` [Compound 7i, 4-({5-[(2-Bromobenzyl)sulfanyl]-4-ethyl-4H-1,2,4-triazol-3-yl}methyl)-1,3-thiazol-2-amine] had a melting point of 108 to 109 °C.

As for `CCn1c(Cc2csc(N)n2)nnc1SCc1ccc(Br)cc1` [Compound 7k, -({5-[(4-Bromobenzyl)sulfanyl]-4-ethyl-4H-1,2,4-triazol-3-yl}methyl)-1,3-thiazol-2-amine], the melting point lay in the range of 150 to 151 °C.
